Measurements: the supplement of paper PMC10307832

Experiments:
Assay in all cases: relative viability (nuclei count vs DMSO), 5 days (fraction); higher = more cells survive
[1] = compound: C#Cc1cccc(Nc2ncnc3cc(OC)c(OCCCCCCC(=O)NO)cc23)c1 [CUDC-101] + COc1cc2c(Oc3ccc(NC(=O)C4(C(=O)Nc5ccc(F)cc5)CC4)cc3F)ccnc2cc1OCCCN1CCOCC1 [Foretinib] (partner 0.25 µM)
Procedure, shortened: (§1)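 Relative viability equals treated-well nuclei counts divided by vehicle-well nuclei counts. Counts came from 4× images of lung cancer cell lines grown in 1536-well plates for 5 days after pin-tool dosing on the day after seeding. Dosing used one drug alone or a fixed anchor-drug dose plus five library-drug doses (not always all listed) in √10 steps, and values are medians of duplicate plates.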

[2] = compound: C#Cc1cccc(Nc2ncnc3cc(OC)c(OCCCCCCC(=O)NO)cc23)c1 [CUDC-101] + COc1cccc2cc(-c3nc([C@H]4CC[C@H](C(=O)O)CC4)n4ncnc(N)c34)[nH]c12 [OSI-027] (partner 0.5 µM)
Procedure, shortened: as §1

[3] = compound: C#Cc1cccc(Nc2ncnc3cc(OC)c(OCCCCCCC(=O)NO)cc23)c1 [CUDC-101] + NC(=O)Nc1cc(-c2cccc(F)c2)sc1C(=O)N[C@H]1CCCNC1 [AZD7762] (partner 0.2 µM)
Procedure, shortened: as §1

[4] = compound: C#Cc1cccc(Nc2ncnc3cc(OC)c(OCCCCCCC(=O)NO)cc23)c1 [CUDC-101] + Nc1ncn([C@H]2C[C@H](O)[C@@H](CO)O2)c(=O)n1 [Decitabine] (partner 2 µM)
Procedure, shortened: as §1

Cell Line | relative viability ([1]; first compound 0.01 µM) | relative viability ([1]; first compound 0.03162 µM) | relative viability ([1]; first compound 0.1 µM) | relative viability ([1]; first compound 0.3162 µM) | relative viability ([1]; first compound 1 µM) | relative viability ([2]; first compound 0.01 µM) | relative viability ([2]; first compound 0.03162 µM) | relative viability ([2]; first compound 0.1 µM) | relative viability ([2]; first compound 0.3162 µM) | relative viability ([2]; first compound 1 µM) | relative viability ([3]; first compound 0.01 µM) | relative viability ([3]; first compound 0.03162 µM) | relative viability ([3]; first compound 0.1 µM) | relative viability ([3]; first compound 0.3162 µM) | relative viability ([3]; first compound 1 µM) | relative viability ([4]; first compound 0.01 µM) | relative viability ([4]; first compound 0.03162 µM) | relative viability ([4]; first compound 0.1 µM) | relative viability ([4]; first compound 0.3162 µM) | relative viability ([4]; first compound 1 µM)
NCI-H2347 | 0.888 | 0.948 | 0.902 | 0.99 | 0.689 | 0.313 | 0.38 | 0.402 | 0.469 | 0.25 | 0.934 | 0.653 | 0.697 | 0.791 | 0.569 | 0.636 | 0.585 | 0.672 | 0.591 | 0.576
NCI-H2405 | 1.09 | 0.991 | 1.08 | 1.16 | 1.04 | 0.643 | 0.613 | 0.721 | 0.734 | 0.541 | 0.763 | 0.704 | 0.809 | 0.747 | 0.649 | 0.853 | 0.705 | 0.776 | 0.762 | 0.643
NCI-H3122 | 1.02 | 0.973 | 0.908 | 0.943 | 0.769 | 0.909 | 1.07 | 1.03 | 1.14 | 0.927 | 0.998 | 0.951 | 1 | 1.04 | 1.06 | 0.402 | 0.4 | 0.51 | 0.461 | 0.485
PC-3 [JPC-3] | 1.07 | 1 | 0.882 | 0.539 | 0.294 | 0.758 | 0.786 | 0.514 | 0.547 | 0.407 | 0.731 | 0.752 | 0.65 | 0.538 | 0.361 | 0.773 | 0.717 | 0.54 | 0.723 | 0.476
PC-14 | 0.939 | 0.745 | 0.495 | 0.628 | 0.21 | 1.02 | 0.813 | 0.378 | 0.571 | 0.0565 | 0.428 | 0.339 | 0.214 | 0.185 | 0.124 | 0.253 | 0.249 | 0.158 | 0.179 | 0.0808
RERF-LC-KJ | 0.884 | 0.889 | 0.791 | 0.812 | 0.644 | 0.517 | 0.612 | 0.674 | 0.585 | 0.401 | 1.01 | 0.971 | 1.18 | 0.922 | 0.608 | 0.648 | 0.724 | 0.711 | 0.588 | 0.469
SW 900 | 0.761 | 0.629 | 0.738 | 0.885 | 0.716 | 0.577 | 0.42 | 0.562 | 0.577 | 0.662 | 0.57 | 0.476 | 0.568 | 0.716 | 0.555 | 0.428 | 0.405 | 0.426 | 0.397 | 0.33
